The numbers were not newly measured in US20070136825A1, “Fusion proteins useful for detecting analytes” (priority 2001, published 2007), which cites them from elsewhere.

The conditions of the data set: glucose; GGBP alone; Zukin et al.; read-out: Kd Binding protein, glucose.

On to “GGBP: glucose/galactose binding protein (mglB, E. coli), SEQ ID NO:4”, for which the Kd – broadly, the free concentration of one partner at which half of the binding sites on the other are occupied at equilibrium, for simple one-to-one binding – is 210 nM.
